Reference: ChEMBL document CHEMBL5550190 (J Med Chem, 2024)

Tests used:
[1] = tested on: HCT-116; test: Antitumor activity against human HCT-116 cells incubated for 48 hrs; type: functional
[2] = target: Cannabinoid receptor 2 (Homo sapiens, UniProt P34972); test: Inhibition of CB2 (unknown origin); type: single protein
[3] = tested on: MDA-MB-231; test: Antitumor activity against human MDA-MB-231 cells incubated for 48 hrs by Celltiter Blue reagent based 2D microtiter assay; type: functional
[4] = tested on: MDA-MB-231; test: Antitumor activity against human MDA-MB-231 cells incubated for 48 hrs in presence of 1.5% BSA by Celltiter Blue reagent based 2D microtiter assay; type: functional
[5] = tested on: MDA-MB-231; test: Antitumor activity against human MDA-MB-231 cells incubated for 48 hrs in presence of 1.5% BSA by Celltiter Blue reagent based 3D microtiter assay; type: functional
[6] = tested on: MDA-MB-231; test: Antitumor activity against human MDA-MB-231 cells incubated for 48 hrs by Celltiter Blue reagent based 3D microtiter assay; type: functional
[7] = Intrinsic clearance in human hepatocytes measured per million cells incubated for 120 mins by LC-MS/MS analysis; type: ADME, cell-based, Hepatocyte; conditions: read-out: CLH
[8] = tested on: BMDM; test: Growth inhibition of mouse BMDMs; type: functional, cell-based
[9] = tested on: A549; test: Antitumor activity against human A549 cells incubated for 48 hrs; type: functional
[10] = tested on: Hs-578T; test: Antitumor activity against human Hs-578T cells incubated for 48 hrs; type: functional

Cannabinoid receptor 2, sequence (P34972 whole entry): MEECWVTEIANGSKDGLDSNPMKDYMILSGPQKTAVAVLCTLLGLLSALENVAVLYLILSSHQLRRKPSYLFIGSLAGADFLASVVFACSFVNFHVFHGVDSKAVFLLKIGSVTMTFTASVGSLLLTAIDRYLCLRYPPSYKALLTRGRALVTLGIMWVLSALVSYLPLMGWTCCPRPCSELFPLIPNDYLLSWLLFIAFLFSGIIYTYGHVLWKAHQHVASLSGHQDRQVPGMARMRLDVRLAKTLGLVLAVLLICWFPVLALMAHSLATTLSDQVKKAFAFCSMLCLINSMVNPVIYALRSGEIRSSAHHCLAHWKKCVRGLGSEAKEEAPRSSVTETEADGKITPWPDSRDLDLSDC

Work on `[2H]C([2H])([2H])Oc1cc(C(=O)Nc2cc3c(cc2Oc2cc(C)cc(C)c2)C(=O)N[C@@H](CC(=O)N(OC([2H])([2H])[2H])C([2H])([2H])[2H])C(=O)N3)c(Br)c(OC([2H])([2H])[2H])c1OC([2H])([2H])[2H]` yielded a GI50 [1] of less than 5 nM, an IC50 [2] of 4700 nM and a GI50 [3] of less than 1 nM. The GI50 [4] was less than 1 nM, the GI50 [5] was 9.47 nM and the GI50 [6] was 2.12 nM. It also gave a hepatocyte CLint [7] of 8.5 µL/min/1e6 cells, an IC50 [8] of 1420 nM and a GI50 [9] of less than 5 nM. It also gave a GI50 [10] of less than 5 nM.
